Drawing on the pKa sets of Baltruschat and Czodrowski (2020), this text covers pKa for 99 compounds.

The pKa is the pH at which an ionisable group is half protonated. Lower therefore signals a stronger acid or weaker base. For `CN1[C@@H]2CC[C@H]1C[C@H](OC(=O)C(O)c1ccccc1)C2` (some centres not stated), the pKa (basic group) was 9.61. On to `C[Si](C)(C)CCC(=O)O`, for which, for the setting “acidic group”, the pKa turned out to be 4.91. Take `[O-]c1ncnc2[nH]cnc12`: under “basic group”, the pKa is 8.71. Under “acidic group”, `C[NH+](C)CC(=O)O` had a pKa of 1.99. `CN(C)CCCCNC(=O)/C=N/[O-]`: the pKa (basic group) worked out at 10.1. The same measure, in the same setting: the same measure for `CCCCCCCCCCCCCCCC[NH+](CCCCCCCCCCCCCCCC)CCn1ccnc1`: 4; for `CCNCC(=O)c1ccc(O)cc1`: 7.77. Still for that read-out and setting: the same measure for `CCCCCCN(CCCCCC)c1ccccc1`: 4.89.

`NC(=S)c1ccc(Br)cc1`: the pKa (acidic group) was found to be 12.5. `Cc1cccc([Se](=O)O)c1` yielded a pKa (acidic group) of 4.8. Compound `[NH3+]CCCCC(=O)O` displayed a pKa (acidic group) of 4.26. For the setting “acidic group”, `Cc1cc[nH]c1C(=O)O` yielded a pKa of 5.1. As for `CCN(CC)CCCCCCCC(C)Nc1c2ccc(Cl)cc2nc2ccc(OC)cc12` (configuration not stated), the pKa (basic group) was determined as 10.4. Turning to `CCC(C)NC(C#N)=C(C#N)C#N` (configuration not stated), the pKa (acidic group) worked out at 6.35. For the compound `CN1C(=O)C(C)(C)NC1=S`, the pKa (acidic group) is 10.8.

As for `N#CCCC(=O)O`, where the note is “acidic group”, the pKa was 3.98. With `Oc1cc(-c2ccccc2)n(-c2ccccc2)n1`, where the note is “acidic group”, the pKa is 12.9. As for `O=C(O)Cc1ccsc1`, where the note is “acidic group”, the pKa came out at 4.07. Still for that read-out and setting: the same measure for `CCC(=O)/C=N/O`: 8.37; for `Brc1nnn[nH]1`: 2.13. Compound `CC(C#N)C(=O)O` (configuration not stated) had a pKa (acidic group) of 2.37.

For the setting “basic group”, `Cc1cc(Br)cc(C)c1N(C)C` returned a pKa of 4.36. The same measure, in the same setting: the value for `Cc1cccnc1C` was 6.57; that for `c1csc(-c2nccs2)n1` was 2.76. For `[O-]c1[nH+]ccc2c1cnc1ccccc12`, the pKa (basic group) is 4.1. For the compound `O=C([O-])c1cccc2ccc(O)cc12`, the pKa (acidic group) was 9.6.

Where the note is “acidic group”, `O=[N+]([O-])c1ccccc1[Se]O` registered a pKa of 10.5. Compound `CC[NH2+]CCCC(=O)O` had a pKa (acidic group) of 3.92. Compound `NCC(O)C[NH3+]` returned a pKa (basic group) of 8.19. The same measure, in the same setting: the same measure for `c1ccc(-n2cnnn2)cc1`: -3.41.

Compound `CCc1nsc(O)n1` came in with a pKa (acidic group) of 6.89.

Under “basic group”, `Cc1ccc(N(C)C)cc1` gave a pKa of 5.56.

The compound `[NH3+][C@@H](CCC(=O)O)C(=O)O` yielded a pKa (acidic group) of 2.08. Regarding `O=CC1c2ccccc2-c2ccccc21`, the pKa is, setting by setting: (acidic group) 7.4; (basic group) 6.2. As for `C[n+]1c([S-])ccnc1[S-]`, the pKa (basic group) turned out to be 6.96. Same read-out and setting: the value for `N=C(N)N(c1ccccc1)c1ccccc1` was 10.4. Regarding `O=c1cccccc1`, for the setting “basic group”, the pKa is -0.82. Same read-out and setting: the same measure for `Cc1cc(-c2cc(C)n(C)[nH+]2)nn1C`: -0.6. For `CC(C)c1cccc(=O)c(O)c1`, where the note is “acidic group”, the pKa turned out to be 7.22. On the same count and under the same terms, the same measure for `CC(=O)NCc1cc(C)cc(CNC(C)=O)c1O`: 9. `CCN1CCCC1C` (configuration not stated): the pKa (basic group) was 10.6. The same measure, in the same setting: the same measure for `c1ccc(CNc2ncnc3[nH]cnc23)cc1`: 4.09. For the setting “acidic group”, `Cc1ccnc2c(O)cccc12` had a pKa of 8.44. The same measure, in the same setting: the value for `COc1ccccc1/C=C/C=N\O` was 11.3; that for `Cc1nonc1NS(=O)(=O)c1ccc(N)cc1` was 4; that for `CC(C)(C)Cc1ccccc1O` was 10.7.

In turn, `Oc1ccc(F)cc1` registered a pKa (acidic group) of 9.88. Still for that read-out and setting: the value for `C=CCC1(C2=CCCCC2)C(=O)[N-]C(=S)NC1=O` was 11.7.

`O=C(O)Cc1ccc(Cl)s1` had a pKa (acidic group) of 3.89. As to `CCC1CSC(C(C)C)=N1` (configuration not stated), where the note is “basic group”, the pKa worked out at 5.28.

In the case of `CN(O)C(=O)c1ccc([N+](=O)[O-])cc1`, the pKa (acidic group) came to 7.92. In the case of `FC(F)(F)c1cccc(NC=S)c1`, under “acidic group”, the pKa came out at 10.8.

As for `CN(C)C[C@@H]1[C@@H](N)[C@]2(C)CC[C@@H]1C2(C)C`, for the setting “basic group”, the pKa came out at 9.45.

On to `NNC(=O)c1ccc[nH+]c1`, for which the pKa (basic group) was 1.64.

On to `Fc1ccc(NC(=S)c2ccc(Cl)cc2)cc1`, for which the pKa (acidic group) worked out at 10.4. Turning to `CCCCCCCCCCCCN(CC(C)O)CC(O)CC` (configuration not stated), under “basic group”, the pKa turned out to be 6.2. `O/C(=C/c1cccnc1)c1ccccc1`: the pKa is, setting by setting: (acidic group) 8.79; (basic group) 5.84.

Take `O=C(CCN1CCOCC1)c1ccccc1`: under “basic group”, the pKa was 6.5. `O=C(O)c1ccc(CO)cc1` returned a pKa (acidic group) of 4.18.

In turn, `NC(=O)CNCCCNCC(N)=O` gave a pKa (acidic group) of 7.27. Compound `c1ccc2nc3ccccc3cc2c1` displayed a pKa (basic group) of 5.48. For `C/C=C/CC(=O)O`, where the note is “acidic group”, the pKa worked out at 4.28.

In turn, `CC(=O)c1cccc(=O)c(O)c1` gave a pKa (acidic group) of 6.16. Regarding `COCc1ccccc1CN(C)C`, under “basic group”, the pKa amounted to 9.19.

Under “acidic group”, `CC1(C)OC(=O)C[C@H]2[C@@H](C(=O)O)[NH2+]C[C@H]21` had a pKa of 2.27.

The compound `O=[N+]([O-])c1ccc2[nH]c(CCl)nc2c1` displayed a pKa (basic group) of 2.21. `CCC(=O)C(CC(C)N1CCOCC1)(c1ccccc1)c1ccccc1` (configuration not stated) showed a pKa (basic group) of 6.89. The same measure, in the same setting: the value for `COc1nc2ccccc2c2ccccc12` was 2.38; that for `CCc1cc(Cl)c(OC)c(C(=O)NC[C@H]2CCCN2CC)c1[O-]` was 9.77. Take `[O-]c1ccccc1/C=N/O`: for the setting “acidic group”, the pKa was 12.1.

The compound `CC(C)(C)c1ccc(C(=O)/C=C/C(=O)O)cc1` gave a pKa (acidic group) of 3.42. Still for that read-out and setting: the value for `CC(=O)CC(=S)Nc1cccc(C)c1` was 7.56. Where the note is “basic group”, `c1cnc2ccc3[nH+]cccc3c2c1` returned a pKa of 2.4. Regarding `Cc1nc2ccccc2n(C)c1=O`, the pKa (basic group) is 0.51.

`O=C1c2ccccc2C(=O)N1O` gave a pKa (acidic group) of 6.13. Take `COc1ccc([N+](=O)[O-])c2cccnc12`: the pKa (basic group) was 3.55. Regarding `[NH3+]CCC#CC#CCCC(=O)O`, for the setting “acidic group”, the pKa was 4.12. On the same count and under the same terms, the same measure for `O=C(O)CC(=O)/C=N/O`: 3.5.

Turning to `CC(O)[C@@H]1CN[C@H](C(=O)[O-])[C@H]1CC(=O)[O-]` (some centres not stated), the pKa (basic group) amounted to 10.1. The same measure, in the same setting: the value for `CCOC(=O)CC(NC)c1ccccc1` (configuration not stated) was 8.23; that for `CN1CC[C@@]23c4c5ccc(O)c4O[C@]2(C)C(=O)CC[C@@H]3[C@@H]1C5` was 8.08. For `CC(=N\O)/C(CO)=N/[O-]`, the pKa (acidic group) is 12.1. As for `Cn1c(-c2ccccc2[O-])nc2ccccc21`, under “basic group”, the pKa stood at 8.92. Still for that read-out and setting: the same measure for `O=C1Nc2cncnc2N/C1=C1/Nc2ncncc2NC1=O`: 1.

`Nc1ccc(C(=O)c2ccc([NH3+])cc2)cc1` came in with a pKa (basic group) of 1.37. As for `NC(=O)c1cncc2ccccc12`, under “basic group”, the pKa was 3.8. On to `Nc1cncnc1N`, for which the pKa is, setting by setting: (acidic group) 9.33; (basic group) 6.03.

Where the note is “acidic group”, `CC[NH+](CC)Cc1cc([N+](=O)[O-])ccc1O` came in with a pKa of 5.75. `O=C(CC(=O)c1ccccc1)Nc1cccc([N+](=O)[O-])c1` yielded a pKa (acidic group) of 9.54. Still for that read-out and setting: the value for `O=[N+]([O-])c1cc(C[NH+]2CCOCC2)c(O)c2ccccc12` was 3; that for `O=[PH](O)c1ccccc1` was 1.63. The compound `CN1[C@@H]2CC[C@H]1C[C@@H](O)C2` had a pKa (basic group) of 9.86. With `Cc1ccccc1NC(=S)c1ccccc1`, the pKa (acidic group) was determined as 10.2. For the setting “acidic group”, `Oc1nc([S-])nc2nc[nH]c12` came in with a pKa of 10.3. This pKa and that of the compound before are within 0.2 log units of each other. As to `C[n+]1c2ccccc2cc2ccc(N)cc21`, the pKa (acidic group) was found to be 11.8. `O=[N+]([O-])c1ccc2[nH]c(-c3ccco3)nc2c1` showed a pKa (basic group) of 2.64. Compound `CCOC(=O)c1cccc(O)c1` gave a pKa (acidic group) of 9.05.

`CC/C(C)=C/C(=O)O` registered a pKa (acidic group) of 5.14. As for `C=CCN`, the pKa (basic group) was found to be 9.74.
